Values after ≈ are worked out from the molar mass of the structure shown.
Tests used:
[1] = test system: SN12C; assay: Cytotoxicity against human SN12C cells assessed as cell growth after 48 hrs by SRB assay relative to control; assay type: functional
[2] = test system: SK-OV-3; assay: Cytotoxicity against human SKOV3 cells assessed as cell growth after 48 hrs by SRB assay relative to control; assay type: functional
[3] = Cytotoxicity against human OVCAR5 cells assessed as cell growth after 48 hrs by SRB assay relative to control; assay type: functional, OVCAR-5
[4] = Cytotoxicity against human OVCAR4 cells assessed as cell growth after 48 hrs by SRB assay relative to control; assay type: functional, OVCAR-4
[5] = test system: UACC-62; assay: Cytotoxicity against human UACC62 cells assessed as cell growth after 48 hrs by SRB assay relative to control; assay type: functional
[6] = test system: Malme-3M; assay: Cytotoxicity against human MALME-3M cells assessed as cell growth after 48 hrs by SRB assay relative to control; assay type: functional
[7] = test system: U-251; assay: Cytotoxicity against human U251 cells assessed as cell growth after 48 hrs by SRB assay relative to control; assay type: functional
[8] = test system: SF-268; assay: Cytotoxicity against human SF268 cells assessed as cell growth after 48 hrs by SRB assay relative to control; assay type: functional
[9] = test system: HT-29; assay: Cytotoxicity against human HT-29 cells assessed as cell growth after 48 hrs by SRB assay relative to control; assay type: functional
[10] = test system: HCC 2998; assay: Cytotoxicity against human HCC2998 cells assessed as cell growth after 48 hrs by SRB assay relative to control; assay type: functional
[11] = test system: NCI-H522; assay: Cytotoxicity against human NCI-H522 cells assessed as cell growth after 48 hrs by SRB assay relative to control; assay type: functional
[12] = test system: A549; assay: Cytotoxicity against human A549 cells assessed as cell growth after 48 hrs by SRB assay relative to control; assay type: functional
[13] = test system: MOLT-4; assay: Cytotoxicity against human MOLT4 cells assessed as cell growth after 48 hrs by SRB assay relative to control; assay type: functional
[14] = test system: Listeria monocytogenes; assay: Antimicrobial activity against Listeria monocytogenes ATCC 19115 after 24 hrs by broth microdilution method; assay type: functional; conditions: ATCC 19115, 24 h
[15] = test system: Candida albicans; assay: Antimicrobial activity against Candida albicans ATCC 90028 after 24 hrs by broth microdilution method; assay type: functional; conditions: ATCC 90028, 24 h
[16] = test system: Pseudomonas aeruginosa; assay: Antimicrobial activity against Pseudomonas aeruginosa ATCC 27853 after 24 hrs by broth microdilution method; assay type: functional; conditions: ATCC 27853, 24 h
[17] = test system: Klebsiella pneumoniae; assay: Antimicrobial activity against Klebsiella pneumoniae ATCC 13883 after 24 hrs by broth microdilution method; assay type: functional; conditions: ATCC 13883, 24 h
[18] = test system: T47D; assay: Cytotoxicity against human T47D cells assessed as cell growth after 48 hrs by SRB assay relative to control; assay type: functional
[19] = test system: MCF7; assay: Cytotoxicity against human MCF7 cells assessed as cell growth after 48 hrs by SRB assay relative to control; assay type: functional
[20] = test system: PC-3; assay: Cytotoxicity against human PC3 cells assessed as cell growth after 48 hrs by SRB assay relative to control; assay type: functional
[21] = Cytotoxicity against human UO31 cells assessed as cell growth after 48 hrs by SRB assay relative to control; assay type: functional, UO-31
[22] = Toxicity in brine shrimp larvae assessed as mortality after 24 hrs; assay type: organism-based; conditions: artemia salina, in vivo
[23] = test system: Artemia salina; assay: Toxicity in brine shrimp larvae assessed as mortality at 50 ug/ml after 24 hrs; assay type: organism-based; conditions: in vivo
[24] = test system: Artemia salina; assay: Toxicity in brine shrimp larvae assessed as mortality at 100 ug/ml after 24 hrs; assay type: organism-based; conditions: in vivo

Row | SMILES | Activity [1] [%] | Activity [2] [%] | Activity [3] [%] | Activity [4] [%] | Activity [5] [%] | Activity [6] [%] | Activity [7] [%] | Activity [8] [%] | Activity [9] [%] | Activity [10] [%] | Activity [11] [%] | Activity [12] [%] | Activity [13] [%] | MIC [14] [µg/mL] | MIC [15] [µg/mL] | MIC [16] [µg/mL] | MIC [17] [µg/mL] | Activity [18] [%] | Activity [19] [%] | Activity [20] [%] | also measured
1 | COc1ccc(C(=O)CSc2nc(C)c(C)n2Nc2ccccc2)cc1 | 98.88 | 93.26 | 99.29 | 92.83 | 90.38 | 101.4 | 93.77 | 104.5 | 94.25 | 93.49 | 77.18 | 97.35 | 89.96 | 800 (≈ 2180 µM) | 400 (≈ 1090 µM) | 200 (≈ 544 µM) | 800 (≈ 2180 µM) | 71.62 | 105.7 | 89.35 | Activity [21]: 69.91%
2 | Cc1nc(SCC(=O)c2ccc(Cl)cc2)n(Nc2ccccc2)c1C | 93.18 | 102.4 | 103.9 | 93.89 | 90.32 | 97.11 | 90.68 | 103.9 | 99.26 | 106.9 | 79.92 | 86.67 | 87.31 | 400 (≈ 1080 µM) | 200 (≈ 538 µM) | 400 (≈ 1080 µM) | 800 (≈ 2150 µM) | 79.51 | 88.08 | 91.86 | Activity [21]: 66.15%
3 | Cc1nc(SCC(=O)c2ccccc2)n(Nc2ccccc2)c1C | 99.9 | 97.79 | 109.7 | 105.2 | 102.6 | 103.5 | 97.26 | 101.9 | 97.65 | 110.5 | 81.35 | 99.16 | 100.2 | 800 (≈ 2370 µM) | 400 (≈ 1190 µM) | 200 (≈ 593 µM) | 800 (≈ 2370 µM) | 85.54 | 96.9 | 102 | LC50 at 24 h [22]: > 1600 µg/mL; Activity [23]: Non-toxic; Activity [24]: Non-toxic; Activity [21]: 68.6%
